The target of the first assay is T1, hT2R54 (Homo sapiens, UniProt P59534).
T1 construct: expressed in transfected cells; it overexpresses a promiscuous G protein
T1 sequence (P59534 1-338): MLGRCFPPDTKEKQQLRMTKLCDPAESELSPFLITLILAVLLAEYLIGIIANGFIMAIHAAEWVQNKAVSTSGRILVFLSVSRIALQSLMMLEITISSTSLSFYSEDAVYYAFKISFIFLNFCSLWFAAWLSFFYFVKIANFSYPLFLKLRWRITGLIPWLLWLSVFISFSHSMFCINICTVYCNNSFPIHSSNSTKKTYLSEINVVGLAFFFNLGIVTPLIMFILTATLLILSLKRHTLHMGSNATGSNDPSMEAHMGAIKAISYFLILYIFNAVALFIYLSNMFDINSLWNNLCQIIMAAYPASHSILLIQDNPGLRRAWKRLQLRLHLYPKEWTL
Kind of assay: Cell-based assay for measuring hT2R54 inhibition (FLIPR calcium, Fluo4AM, acetaminophen as bitter agonist). The settings on record: Table 2; cells stably expressing hT2R54 and a promiscuous G protein; read-out: hT2R54 IC50. An outline of the steps: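 Cells stably co-expressing hT2R54 and a promiscuous G protein were loaded with Fluo4AM and given acetaminophen dose series, alone or with fixed concentrations of test compound. On FLIPR, baseline was recorded for 10 s and fluorescence for 3 min after addition. IC50 is the concentration halving the acetaminophen-alone response.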
In the case of `COCc1ccc(C(=O)N2CCN(CC(=O)Nc3cc4c(cc3C(C)=O)OCO4)CC2)cc1` [compound 282], the IC50 was found to be 38 nM.

As to `COCc1cccc(C(=O)N2CCN(CC(=O)Nc3cc4c(cc3C(C)=O)OCO4)CC2)n1` [compound 283], the 50% inhibitory concentration (IC50) was found to be 125 nM. Still for that read-out and setting: next, `CC(=O)c1cc2c(cc1NC(=O)CN1CCN(C(=O)c3csnn3)CC1)OCO2` [compound 284]: 30 nM; `CC(=O)c1cc2c(cc1NC(=O)CN1CCN(C(=O)c3cscn3)CC1)OCO2` [compound 285]: 34 nM. Still for that read-out and setting: to `CC(=O)c1cc2c(cc1NC(=O)CN1CCN(C(=O)c3cocn3)CC1)OCO2` [compound 286] belongs 108 nM; to `CC(=O)c1cc2c(cc1NC(=O)CN1CCN(C(=O)c3ccc(CO)o3)CC1)OCO2` [compound 287], 230 nM; to `COCc1ccc(C(=O)N2CCN(CC(=O)Nc3cc4c(cc3C(C)=O)OCO4)CC2)o1` [compound 288], 65 nM.

Take `COCc1ccc(C(=O)N2CCN(CC(=O)Nc3cc4c(cc3C(C)=O)OCO4)CC2)s1` [compound 289]: the IC50 was determined as 21 nM. The same measure, in the same setting: to `CC(=O)c1cc2c(cc1NC(=O)CN1CCN(C(=O)c3cc(C)c(C)o3)CC1)OCO2` [compound 290] belongs 10 nM; to `CCc1oc(C(=O)N2CCN(CC(=O)Nc3cc4c(cc3C(C)=O)OCO4)CC2)cc1COC` [compound 291], 49 nM; to `CC(=O)c1cc2c(cc1NC(=O)CN1CCN(C(=O)c3ccc(Cn4cccn4)o3)CC1)OCO2` [compound 292], 6 nM.

As to `CC(=O)c1cc2c(cc1NC(=O)CN1CCN(C(=O)c3cc(C)no3)CC1)OCO2` [compound 293], the 50% inhibitory concentration (IC50) worked out at 8 nM. As for `COCc1cc(C(=O)N2CCN(CC(=O)Nc3cc4c(cc3C(C)=O)OCO4)CC2)no1` [compound 294], the half-inhibitory concentration (IC50) stood at 70 nM.

Consider `COCc1nc(C(=O)N2CCN(CC(=O)Nc3cc4c(cc3C(C)=O)OCO4)CC2)cs1` [compound 295], for which the IC50 came to 20 nM.

Turning to `COCc1nc(C(=O)N2CCN(CC(=O)Nc3cc4c(cc3C(C)=O)OCO4)CC2)co1` [compound 296], the IC50 is 53 nM. On the same count and under the same terms, to `CC(=O)c1cc2c(cc1NC(=O)CN1CCN(C(=O)c3coc(C)n3)CC1)OCO2` [compound 297] belongs 23 nM; to `CC(=O)c1cc2c(cc1NC(=O)CN1CCN(C(=O)c3conc3C)CC1)OCO2` [compound 298], 91 nM; to `CC(=O)c1cc2c(cc1NC(=O)CN1CCN(C(=O)c3ncoc3C)CC1)OCO2` [compound 299], 58 nM. `CC(=O)c1cc2c(cc1NC(=O)CN1CCN(C(=O)c3cc(C)on3)CC1)OCO2` [compound 300]: the IC50 was 40 nM.

Regarding `CC(=O)c1cc2c(cc1NC(=O)CN1CCN(C(=O)c3ncc[nH]3)CC1)OCO2` [compound 301], the IC50 came to 20 nM. Regarding `CC(=O)c1cc2c(cc1NC(=O)CN1CCN(C(=O)c3cn[nH]c3)CC1)OCO2` [compound 302], the IC50 worked out at 800 nM.

For `CC(=O)c1cc2c(cc1NC(=O)CN1CCN(C(=O)c3c[nH]nn3)CC1)OCO2` [compound 303], the IC50 worked out at 60 nM. In the case of `CC(=O)c1cc2c(cc1NC(=O)CN1CCN(C(=O)c3ncn[nH]3)CC1)OCO2` [compound 304], the IC50 came out at 80 nM. On to `CC(=O)c1cc2c(cc1NC(=O)CN1CCN(C(=O)c3nccn3C)CC1)OCO2` [compound 305], for which the IC50 came out at 31 nM. For `COc1cc2c(cc1NC(=O)CN1CCN(C(=O)c3nc(C)c[nH]3)CC1)OCO2` [compound 306], the IC50 was determined as 77 nM. Same read-out and setting: to `CC(=O)c1cc2c(cc1NC(=O)CN1CCN(C(=O)c3n[nH]cc3C)CC1)OCO2` [compound 307] belongs 90 nM.

Turning to `CC(=O)c1cc2c(cc1NC(=O)CN1CCN(C(=O)c3nc(C)c[nH]3)CC1)OCO2` [compound 308], the IC50 worked out at 9 nM. The same measure, in the same setting: to `CC(=O)c1cc2c(cc1NC(=O)CN1CCN(C(=O)c3c[nH]c(C)n3)CC1)OCO2` [compound 309] belongs 200 nM. `CC(=O)c1cc2c(cc1NC(=O)CN1CCN(C(=S)Nc3ccccc3)CC1)OCO2` [compound 310]: the IC50 turned out to be 800 nM. Still for that read-out and setting: next, `COCC(=O)N1CCN(CC(=O)Nc2cc3c(cc2C(=O)OC)OCO3)CC1` [compound 311]: 82 nM. In the case of `COCCC(=O)N1CCN(CC(=O)Nc2cc3c(cc2C(=O)OC)OCO3)CC1` [compound 312], the IC50 was 157 nM. `CC(=O)c1cc2c(cc1NC(=O)CN1CCN(C(=O)[C@H]3CCC(=O)O3)CC1)OCO2` [compound 313]: the IC50 amounted to 60 nM. Same read-out and setting: next, `CC(=O)c1cc2c(cc1NC(=O)CN1CCN(C(=O)[C@@H]3CCCO3)CC1)OCO2` [compound 314]: 60 nM. Same read-out and setting: next, `CC(=O)c1cc2c(cc1NC(=O)CN1CCN(C(=O)[C@H]3CCCO3)CC1)OCO2` [compound 315]: 130 nM. Still for that read-out and setting: next, `CC(=O)c1cc2c(cc1NC(=O)C(C)N1CCN(C(=O)[C@@H]3CCCO3)CC1)OCO2` (some centres unmarked) [compound 316]: 80 nM; `CC(=O)c1cc2c(cc1NC(=O)C(C)N1CCN(C(=O)[C@H]3CCCO3)CC1)OCO2` (some centres unmarked) [compound 317]: 200 nM. Regarding `CC(=O)c1cc2c(cc1NC(=O)C(C)N1CCN(C(=O)C3CCCO3)CC1)OCO2` (centres unmarked) [compound 318], the IC50 is 60 nM. On the same count and under the same terms, to `CC(=O)c1cc2c(cc1NC(=O)C(C)(C)N1CCN(C(=O)C3CCCO3)CC1)OCO2` (centres unmarked) [compound 319] belongs 1000 nM; to `COCC(C(=O)Nc1cc2c(cc1C(C)=O)OCO2)N1CCN(C(=O)[C@H]2CCCO2)CC1` (some centres unmarked) [compound 320], 1600 nM.

As to `CC(=O)c1cc2c(cc1NC(=O)CN1CCN(C(=O)C3CCN(C)C3)CC1)OCO2` (centres unmarked) [compound 321], the IC50 worked out at 1000 nM. Consider `CC(=O)c1cc2c(cc1NC(=O)CN1CCN(C(=O)CC3CCCO3)CC1)OCO2` (centres unmarked) [compound 322], for which the IC50 turned out to be 70 nM. On the same count and under the same terms, to `CC(=O)c1cc2c(cc1NC(=O)CN1CCN(C(=O)CC3CCOC3)CC1)OCO2` (centres unmarked) [compound 323] belongs 200 nM.

Consider `CC(=O)c1cc2c(cc1NC(=O)CN1CCN(C(=O)Cc3ccoc3)CC1)OCO2` [compound 324], for which the IC50 came to 80 nM.

With `COCc1ccc(C(=O)N2CCN(CC(=O)Nc3cc4c(cc3C(C)=O)OCCO4)CC2)cc1` [compound 325], the IC50 is 45 nM. In the case of `CC(=O)c1cc2c(cc1NC(=O)CN1CCN(C(=O)c3cccnc3)CC1)OCCO2` [compound 326], the IC50 is 40 nM. Same read-out and setting: to `CC(=O)c1cc2c(cc1NC(=O)CN1CCN(C(=O)c3ccncc3)CC1)OCCO2` [compound 327] belongs 70 nM; to `CC(=O)c1cc2c(cc1NC(=O)CN1CCN(C(=O)c3ncn[nH]3)CC1)OCCO2` [compound 328], 60 nM. On the same count and under the same terms, next, `CC(=O)c1cc2c(cc1NC(=O)CN1CCN(C(=O)c3cnn[nH]3)CC1)OCCO2` [compound 329]: 50 nM; `CC(=O)c1cc2c(cc1NC(=O)CN1CCN(C(=O)c3ccn[nH]3)CC1)OCCO2` [compound 330]: 90 nM; `CC(=O)c1cc2c(cc1NC(=O)CN1CCN(C(=O)c3c[nH]c(C)n3)CC1)OCCO2` [compound 331]: 200 nM.

For the compound `CC(=O)c1cc2c(cc1NC(=O)CN1CCN(C(=O)c3nc(C)c[nH]3)CC1)OCCO2` [compound 332], the IC50 amounted to 200 nM. As to `CC(=O)c1cc2c(cc1NC(=O)CN1CCN(C(=O)c3ccc(C)o3)CC1)OCCO2` [compound 333], the IC50 came to 80 nM. As to `CC(=O)c1cc2c(cc1NC(=O)CN1CCN(C(=O)Cc3ccco3)CC1)OCCO2` [compound 334], the IC50 was 50 nM. Still for that read-out and setting: next, `CC(=O)c1cc2c(cc1NC(=O)CN1CCN(C(=O)[C@H]3CCC(=O)O3)CC1)OCCO2` [compound 335]: 50 nM.

Staying with this assay, now noted: Table 8; read-out: hT2R54 IC50.
`CCOC(=O)N1CCC(CC(=O)Nc2cc3c(cc2C(C)=O)OCO3)C1` (centres unmarked) [compound 268]: the concentration for half-maximal inhibition (IC50) was 117 nM. Same read-out and setting: next, `CCCOC(=O)N1CCC(CC(=O)Nc2cc3c(cc2C(C)=O)OCO3)C1` (centres unmarked) [compound 269]: 103 nM.

Still in this assay, the particulars now being: Table 9; read-out: hT2R54 IC50.
Regarding `CC(=O)c1cc2c(cc1NC(=O)CC1CCOCC1)OCO2` [compound 270, N-(6-Acetylbenzo[d][1,3]dioxol-5-yl)-2-(tetrahydro-2H-pyran-4-yl)acetamide], the IC50 stood at 561 nM. Regarding `CC(=O)c1cc2c(cc1NC(=O)CC1CCCCO1)OCO2` (centres unmarked) [compound 271], the IC50 worked out at 152 nM. Still for that read-out and setting: to `CC(=O)c1cc2c(cc1NC(=O)CC1CCOC1)OCO2` (centres unmarked) [compound 272] belongs 1390 nM. The same measure, in the same setting: to `CC(=O)c1cc2c(cc1NC(=O)Cc1cccnc1)OCO2` [compound 273] belongs 454 nM. On the same count and under the same terms, next, `CC(=O)c1cc2c(cc1NC(=O)Cc1ccc(O)cc1)OCO2` [compound 274]: 554 nM; `CC(=O)c1cc2c(cc1NC(=O)Cc1ccsc1)OCO2` [compound 275]: 704 nM; `COc1ccccc1CC(=O)Nc1cc2c(cc1C(C)=O)OCO2` [compound 276]: 804 nM. Turning to `CC(=O)c1cc2c(cc1NC(=O)Cc1ccccc1C)OCO2` [compound 277], the IC50 was determined as 740 nM. Turning to `CC(=O)c1cc2c(cc1NC(=O)CCc1ccccc1)OCO2` [compound 278], the IC50 was 1220 nM.

Consider `COc1ccc(OC)c(CC(=O)Nc2cc3c(cc2C(C)=O)OCO3)c1` [compound 279], for which the IC50 was determined as 1470 nM.

Consider `CC(=O)c1cc2c(cc1NC(=O)Cc1c(C)nn(C)c1C)OCO2` [compound 280], for which the IC50 was found to be 1720 nM. The same measure, in the same setting: to `COc1cccc(CC(=O)Nc2cc3c(cc2C(C)=O)OCO3)c1` [compound 281] belongs 1810 nM.

(Values after patent US12295396B2, “Antagonists of T2R54 and compositions and uses thereof” (Firmenich Incorporated, priority 2018, dated 2025).)
